Measurements from PMC9731865, “Gambogic acid and juglone inhibit RNase P through distinct mechanisms” (The Journal of Biological Chemistry, 2022).
“And” between values parts separate entries of the source, which are not always exact repeats. Equal values may be shown once. Read-outs that look alike come from different tables or passages of the source.

Key:
PRORP1 = molecular target: T1, PRORP1 (Arabidopsis thaliana, UniProt Q66GI4); assay: Mode of inhibition of gambogic acid, PRORP1 activity at varying pre-tRNA and inhibitor; format: biochemical, A. thaliana
T1 construct: made in house
T1 sequence (Q66GI4 77-572): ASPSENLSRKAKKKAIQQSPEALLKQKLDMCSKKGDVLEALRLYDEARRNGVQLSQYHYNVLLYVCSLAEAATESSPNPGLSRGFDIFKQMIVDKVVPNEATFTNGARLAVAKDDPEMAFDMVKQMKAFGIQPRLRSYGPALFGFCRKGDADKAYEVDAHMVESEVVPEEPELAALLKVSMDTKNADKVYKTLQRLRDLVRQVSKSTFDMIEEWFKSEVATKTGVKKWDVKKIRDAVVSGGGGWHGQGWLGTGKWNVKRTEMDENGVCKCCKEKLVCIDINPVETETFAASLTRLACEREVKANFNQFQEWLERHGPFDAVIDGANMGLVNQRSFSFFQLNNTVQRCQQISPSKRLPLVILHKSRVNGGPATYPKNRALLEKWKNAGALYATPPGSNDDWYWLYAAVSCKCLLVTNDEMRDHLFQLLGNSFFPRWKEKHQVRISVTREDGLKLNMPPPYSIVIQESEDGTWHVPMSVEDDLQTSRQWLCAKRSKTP
Method: Equation 2 was fit to each data set to calculate the values of kcat,app, and KM,app, and (kcat/KM)app. […] The dotted line simulates the fit of Equation 3 with n = 1. C, kcat/KM,app values for PRORP1 activity vary little as a function of the gambogic acid concentration. Error bars indicate standard errors obtained from fitting the data.
To identify the mode of inhibition of gambogic acid, PRORP1 activity was measured with varying pre-tRNA and gambogic acid concentrations. The Michaelis–Menten equation (Equation 2) was fit to each curve individually to calculate the apparent turnover rate constant (kcat,app) and apparent substrate concentration at half maximal activity (KM,app). […] (3) kcat,app=kcat/1+([I]/KI)^n (4) KM,app=KM/1+([I]/KI)^n

human MRPP1/2/3 = molecular target: T2, human MRPP1/2/3 (Homo sapiens, UniProt O15091); assay: Human mitochondrial RNase P (MRPP1/2/3) activity assay; format: biochemical; conditions: 30 min preincubation; 50 nM MRPP3, 500 nM MRPP1/2, 500 nM pre-tRNA, 37 °C; apparent IC50 for juglone
T2 construct: N-terminal truncation (residues 46–583, Δ45MRPP3); His6 (N, cleaved yes); made in house; host or cells: Rosetta (DE3) / Rosetta2 (DE3) E. coli
T2 sequence (O15091 46-583): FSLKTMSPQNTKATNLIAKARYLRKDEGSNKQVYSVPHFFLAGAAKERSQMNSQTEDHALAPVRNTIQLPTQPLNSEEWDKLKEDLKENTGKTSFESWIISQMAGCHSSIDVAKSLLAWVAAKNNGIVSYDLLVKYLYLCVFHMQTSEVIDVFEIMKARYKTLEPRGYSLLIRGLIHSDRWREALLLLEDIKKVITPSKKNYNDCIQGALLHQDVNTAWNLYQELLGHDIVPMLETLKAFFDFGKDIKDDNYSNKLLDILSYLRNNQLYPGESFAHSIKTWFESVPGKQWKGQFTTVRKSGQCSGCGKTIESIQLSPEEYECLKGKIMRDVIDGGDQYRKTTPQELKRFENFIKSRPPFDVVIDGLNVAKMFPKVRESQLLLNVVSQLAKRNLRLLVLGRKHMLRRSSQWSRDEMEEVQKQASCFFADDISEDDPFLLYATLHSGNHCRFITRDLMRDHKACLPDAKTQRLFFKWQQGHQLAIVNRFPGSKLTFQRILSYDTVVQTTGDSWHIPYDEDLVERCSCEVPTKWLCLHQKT
Method: Figure 4 Gambogic acid and juglone inhibit A. thaliana PRORP1 (green), human MRPP1/2/3 (red), and B. subtilis RNase P (blue). Compounds gambogic acid (A) and juglone (B) were incubated with enzyme at double the reaction concentration for 30 min prior to the addition of an equal volume of substrate to initiate the reaction. PRORP1 reactions (shown in green) were performed with 0.3 nM PRORP1 and 800 nM pre-tRNA containing 40 nM Fl-pre-tRNA at 25 °C in 30 mM MOPS pH 7.8, 5 mM MgCl2, 100 mM NaCl, 1 mM TCEP, 500 nM (12 μg/ml) yeast tRNA, 5 mM spermidine, 6.65 μg/ml BSA, and 0.01% NP-40. MRPP1/2/3 reactions (shown in red) were performed using 50 nM MRPP3, 500 nM MRPP1/2, 500 nM pre-tRNA containing 40 nM Fl-pre-tRNA at 37 °C in 50 mM MOPS (pH 7.8), 1 mM TCEP, 4.5 mM MgCl2, and 100 mM NaCl. […]
The inhibition of human MRPP1/2/3 by gambogic acid and juglone was evaluated via dose–response using a quenched assay. Human MRPP1/2/3 activity was measured as a function of gambogic acid and juglone concentration using 50 nM MRPP3, 500 nM MRPP1/2, 500 nM pre-tRNA containing 40 nM Fl-pre-tRNA in 50 mM MOPS (pH 7.8), 4.5 mM MgCl2, 100 mM NaCl, and 1 mM TCEP (pH 7.5). […] Samples were separated by 20% Urea PAGE (Ultra Pure SequaGel), fluorescence signal was quantified using ImageJ, and the data were analyzed using Prism. […]

T. maritima RNase P = molecular target: T. maritima RNase P; set-up: method as in PMID 30997498; conditions: cited from earlier work

CC(C)=CCC[C@]1(C)C=Cc2c(O)c3c(c(CC=C(C)C)c2O1)O[C@]12C(=C[C@@H]4C[C@H]1C(C)(C)O[C@@]2(C/C=C(/C)C(=O)O)C4=O)C3=O [gambogic acid]
Hill coefficient (n), fit of Equation 3 (PRORP1; dependence of kcat,app on gambogic acid concentration): 4 and 3.8 ± 0.8
Ki (PRORP1; global fit, read-out: KI, global fit analysis (Equations 2, 3, 4)): 1100 ± 30 nM
mode of inhibition of PRORP1 (PRORP1; kcat,app decreases, (kcat/KM)app unchanged): uncompetitive inhibitor
Ki (PRORP1; uncompetitive model, gambogic acid 0-1.6 μM, read-out: inhibition constant (KI), fit of Equation 3 to kcat,app): 1080 ± 50 nM
IC50 (human MRPP1/2/3): 260 ± 60 nM

O=C1C=CC(=O)c2c(O)cccc21 [juglone, 5-hydroxy-1,4-naphthalenedione]
IC50 (T. maritima RNase P): 12.8 µM
IC50 (human MRPP1/2/3): 1800 ± 40 nM
